Read-outs that look alike come from different tables or passages of the source.
System: HCV genotype 1b replicon in Huh 7 cells
Experiment: HCV replicon assay (1b_Huh-Luc/Neo-ET cell line, luciferase readout)
Format: cell-based
Details: Hepatitis C virus, read-out: Inhibition of HCV genotype 1b
Experimental: Biological activity of the compounds of the invention was determined using an HCV replicon assay. The 1b_Huh-Luc/Neo-ET cell line persistently expressing a bicistronic genotype 1b replicon in Huh 7 cells was obtained from ReBLikon GMBH. This cell line was used to test compound inhibition using luciferase enzyme activity readout as a measurement of compound inhibition of replicon levels.
On Day 1 (the day after plating), each compound is added in triplicate to the cells. Plates incubated for 72 h prior to running the luciferase assay. Enzyme activity was measured using a Bright-Glo Kit (cat. number E2620) manufactured by Promega Corporation. The following equation was used to generate a percent control value for each compound. % Control=(Average Compound Value/Average Control)*100
The EC50 value was determined using GraphPad Prism and the following equation: Y=Bottom+(Top−Bottom)/(1+10^((Log IC50−X)*HillSlope))
EC50 values of compounds are repeated several times in the replicon assay.

[1] = Table 1, genotype 1b replicon, Huh 7 cells, 72 h, luciferase
[2] = Table 2, genotype 1b replicon, Huh 7 cells, 72 h, luciferase

COC(=O)N[C@H](C(=O)N1CCC[C@H]1c1ncc(-c2ccc3nc(-c4ccc(-c5cnc([C@@H]6CCCN6C(=O)[C@@H](NC(=O)OC)C(C)C)[nH]5)c(F)c4)ccc3c2)[nH]1)C(C)C [compound 126]
EC50 [1]: < 1 nM

COC(=O)N[C@H](C(=O)N1CCC[C@H]1c1nc2ccc(-c3ccc4cc(-c5ccc6nc([C@@H]7CCCN7C(=O)[C@@H](NC(=O)OC)C7CCOCC7)[nH]c6c5)ccc4c3)cc2[nH]1)C1CCOCC1 [compound 279]
EC50 [1]: < 1 nM

COC(=O)N[C@H](C(=O)N1CCC[C@H]1C(=O)N[C@H](C)c1ccc(-c2ccc3cc(-c4cnc([C@@H]5CCCN5C(=O)[C@@H](NC(=O)OC)[C@@H](C)OC)[nH]4)ccc3c2)cc1)[C@@H](C)OC [compound 562]
EC50 (Huh-7, HCV 1b replicon): 10 to 999 nM

COC(=O)N[C@H](C(=O)N1CCOC[C@H]1c1ncc(-c2ccc3cc(-c4ccc5nc([C@@H]6CCCN6C(=O)[C@@H](NC(=O)OC)C(C)C)[nH]c5c4)ccc3c2)[nH]1)C(C)C [compound 220]
EC50 [1]: < 1 nM

COC(=O)N[C@H](C(=O)N1CCC[C@H]1c1ncc(-c2ccc(-c3ccc4cc(-c5c[nH]c([C@@H]6CCCN6C(=O)[C@@H](NC(=O)OC)C6CCOCC6)n5)cnc4c3)nc2)[nH]1)C(C)C [compound 61]
EC50 [1]: < 1 nM

COC(=O)N[C@H](C(=O)N1CCC[C@H]1c1nc(-c2ccc3cc(-c4ccc(-c5cnc([C@@H]6CCCN6C(=O)[C@@H](c6ccccc6)N6CCCC6)[nH]5)cc4)ccc3c2)c[nH]1)C(C)C [compound 10]
EC50 [1]: < 1 nM

COC(=O)N[C@H](C(=O)N1CCC[C@H]1c1nc(-c2ccc3nc(-c4ccc(-c5cnc([C@@H]6CCCN6C(=O)[C@@H](NC(=O)OC)C(C)C)[nH]5)cc4F)ccc3c2)c[nH]1)C(C)C [compound 96]
EC50 [1]: < 1 nM

COC(=O)N[C@H](C(=O)N1CCC[C@H]1c1ncc(-c2ccc(-c3nc4cc(-c5cnc([C@@H]6CCCN6C(=O)[C@@H](NC(=O)OC)C(C)C)[nH]5)ccc4o3)cc2)[nH]1)C(C)C [compound 236]
EC50 [1]: < 1 nM

COC(=O)N[C@H](C(=O)N1CCC[C@H]1c1ncc(-c2ccc(-c3ccc4cc(-c5cnc([C@@H]6CCCN6C(=O)[C@@H](NC(=O)OC)[C@@H](C)OC)[nH]5)ccc4c3)cc2)[nH]1)C1CCCC1 [compound 504]
EC50 (Huh-7, HCV 1b replicon): < 1 nM

COC(=O)N[C@H](C(=O)N1CCC[C@H]1c1nc(-c2ccc3nc(N4CCC(c5cnc([C@@H]6CCCN6C(=O)[C@@H](NC(=O)OC)C6CC6)[nH]5)CC4)ccc3c2)c[nH]1)C1CC1 [compound 274]
EC50 [1]: 1 to 9.9 nM

COC(=O)N[C@H](C(=O)N1CCC[C@H]1c1ncc(-c2ccc(-c3ccc4cc(-c5c[nH]c([C@@H]6CCCN6C(=O)[C@@H](NC(=O)OC)C6CCOCC6)n5)cnc4c3)cn2)[nH]1)C(C)C [compound 95]
EC50 [1]: < 1 nM

CC[C@H](C)[C@H](NC(=O)OC)C(=O)N1CCC[C@H]1c1ncc(-c2ccc3cc(-c4ccc5nc([C@@H]6CCCN6C(=O)[C@@H](NC(=O)OC)[C@@H](C)OC)[nH]c5c4)ccc3c2)[nH]1 [compound 526]
EC50 (Huh-7, HCV 1b replicon): < 1 nM

CC[C@H](C)[C@H](NC(=O)OC)C(=O)N1CCC[C@H]1c1ncc(-c2ccc3cc(-c4ccc5nc([C@@H]6CCCN6C(=O)[C@@H](NC(=O)OC)[C@@H](C)CC)[nH]c5n4)ccc3c2)[nH]1 [compound 521]
EC50 (Huh-7, HCV 1b replicon): < 1 nM

COC(=O)N[C@H](C(=O)N1CCC[C@H]1c1ncc(-c2ccc(-c3ccc4cc(-c5cnc([C@@H]6CCCN6C(=O)[C@@H](NC(=O)OC)C(C)C)[nH]5)ccc4c3)c(C#N)c2)[nH]1)C(C)C [compound 309]
EC50 [2]: < 1 nM

COC(=O)N[C@H](C(=O)N1CCC[C@H]1c1nc2ccc(-c3ccc4nc(-c5ccc6nc([C@@H]7CCCN7C(=O)[C@@H](NC(=O)OC)C(C)C)[nH]c6c5)ccc4c3)cc2[nH]1)C(C)C [compound 280]
EC50 [1]: < 1 nM

COC(=O)N[C@H](C(=O)N1CCC[C@H]1c1ncc(-c2ccc(-c3ccc4cc(-c5c[nH]c([C@@H]6CCCN6C(=O)[C@@H](c6ccccc6)N6CCCC6)n5)ccc4c3)cc2)[nH]1)C(C)C [compound 9]
EC50 [1]: < 1 nM

CC[C@H](NC(=O)OC)C(=O)N1CCC[C@H]1c1ncc(-c2ccc(-c3ccc4cc(-c5cnc([C@@H]6CCCN6C(=O)[C@H](CC)NC(=O)OC)[nH]5)ccc4c3)cc2)[nH]1 [compound 173]
EC50 [1]: < 1 nM

CC[C@H](C)[C@H](NC(=O)OC)C(=O)N1CCC[C@H]1c1ncc(-c2ccc3cc(-c4cc5[nH]c([C@@H]6CCCN6C(=O)[C@@H](NC(=O)OC)[C@@H](C)CC)nc5cn4)ccc3c2)[nH]1 [compound 412]
EC50 [2]: < 1 nM

CNC(=O)N[C@@H](C(=O)N1CCC[C@H]1c1ncc(-c2ccc(-c3ccc4cc(-c5c[nH]c([C@@H]6CCCN6C(=O)[C@@H](NC(=O)OC)C(C)C)n5)ccc4n3)cc2)[nH]1)c1ccccc1 [compound 31]
EC50 [1]: < 1 nM

COC(=O)N[C@@H](C)C(=O)N1CCC[C@H]1c1ncc(-c2ccc3cc(-c4ccc(-c5cnc([C@@H]6CCCN6C(=O)[C@H](NC(=O)OC)c6ccccc6)[nH]5)cn4)ccc3c2)[nH]1 [compound 338]
EC50 [2]: < 1 nM

COC(=O)N[C@H](C(=O)N1CCC[C@H]1CNC(=O)c1ccc2cc(-c3ccc(-c4cnc([C@@H]5CCCN5C(=O)[C@@H](NC(=O)OC)C(C)C)[nH]4)cc3)ccc2c1)C(C)C [compound 574]
EC50 (Huh-7, HCV 1b replicon): < 1 nM

COC(=O)N[C@H](C(=O)N1CCC[C@H]1c1ncc(-c2ccc3nc(-c4ccc(-c5cnc([C@@H]6CCCN6C(=O)[C@H](NC(=O)OC(C)(C)C)c6ccccc6)[nH]5)cc4F)ccc3c2)[nH]1)C1CCOCC1 [compound 135]
EC50 [1]: < 1 nM

COC(=O)N[C@H](C(=O)N1CCC[C@H]1c1ncc(-c2ccc3nc(-c4ccc(-c5cnc([C@@H]6C[C@@H](O)CN6C(=O)[C@@H](NC(=O)OC)C(C)C)[nH]5)cc4)ccc3c2)[nH]1)C(C)C [compound 146]
EC50 [1]: < 1 nM

CC[C@H](C)[C@H](NC(=O)OC)C(=O)N1CCC[C@H]1c1ncc(-c2ccc3nc(-c4ccc5nc([C@@H]6CCCN6C(=O)[C@@H](NC(=O)OC)[C@@H](C)CC)[nH]c5c4)ccc3c2)[nH]1 [compound 383]
EC50 [2]: < 1 nM

COC(=O)N[C@H](C(=O)N1CCC[C@H]1c1nc2ccc3cc(-c4ccc5cc(-c6cnc([C@@H]7CCCN7C(=O)[C@H](NC(=O)OC7CCOCC7)c7ccccc7)[nH]6)ccc5n4)ccc3c2[nH]1)C(C)C [compound 299]
EC50 [1]: < 1 nM

COC(=O)N[C@H](C(=O)N1CCC[C@H]1c1nc2c([nH]1)-c1ccc(-c3ccc4cc(-c5cnc([C@@H]6CCCN6C(=O)[C@H](NC(=O)OC)c6ccccc6)[nH]5)ccc4n3)cc1CC2)C(C)C [294-1]
EC50 [1]: < 1 nM

COC(=O)N[C@H](C(=O)N1CCC[C@H]1c1nc2ccc(-c3ccc4cc(-c5cnc([C@@H]6CCCN6C(=O)[C@@H](NC(=O)OC)[C@@H](C)OC)[nH]5)ccc4c3)nc2[nH]1)C(C)C [compound 532]
EC50 (Huh-7, HCV 1b replicon): < 1 nM

COC(=O)N[C@@H](C(=O)N1CCC[C@H]1CNC(=O)c1cnc2cc(-c3ccc4c(c3)CCc3nc([C@@H]5CCCN5C(=O)[C@H](NC(=O)OC)c5ccccc5)[nH]c3-4)ccc2c1)c1ccccc1 [compound 548]
EC50 (Huh-7, HCV 1b replicon): < 1 nM

COC(=O)N[C@H](C(=O)N1CCC[C@H]1c1ncc(-c2ccc(-c3ccc4cc(-c5cnc([C@@H]6CCCN6C(=O)[C@@H](NC(=O)OC)[C@@H](C)OC)[nH]5)ccc4n3)cc2)[nH]1)[C@@H](C)OC [compound 482]
EC50 (Huh-7, HCV 1b replicon): < 1 nM

COC(=O)N[C@H](C(=O)N1CCC[C@H]1c1nc(-c2ccc3cc(-c4ccc(-c5cnc([C@@H]6CCCN6C(=O)[C@@H](NC(=O)OC)C6CCOCC6)[nH]5)cc4F)ccc3c2)c[nH]1)C(C)C [compound 65]
EC50 [1]: < 1 nM
